Data from patent US20260248717A1, “METHOD OF TREATING LOWER TRACT UROTHELIAL CANCER” (TARIS Biomedical LLC, priority 2016, published 2026).

Experiments:
[1] = Comparison of urine gemcitabine and dFdU between minipig study and human phase IB study; assay type: in vivo; details: for urine concentrations: mini pig study versus human phase IB study (FIG. 10)
[2] = in vivo
Description: The ongoing Phase 1b study, TAR-200-101, is designed to evaluate the safety and tolerability of up to 2 dose cycles of gemcitabine administered intravesicularly at a dose of 225 mg for 7 days separated by a rest period of 14 days using the GemRIS system, over a 28-day period in patients with confirmed muscle-invasive transitional cell carcinoma of the bladder (>/=clinical and pathologic stage pT2a), who are scheduled to undergo radical cystectomy (RC) with concomitant lymphadenectomy.
Gemcitabine Releasing Intravesical System (GemRIS) is placed into the bladder through an inserter on Study Day 0 and is removed on Study Day 7. GemRIS releases gemcitabine gradually during the 7 day indwelling time. A second GemRIS is placed in the bladder on Study Day 21 and is removed on Study Day 28 which is the day of the TURBT. GemRIS is a passive, nonresorbable gemcitabine-releasing intravesicular (intravesical) system whose primary mode of action is the controlled release of gemcitabine into the bladder over a 7 day period.
The primary outcome measures are the number of participants with treatment emergent adverse events (TEAEs) coded with MedDRA and graded for severity with CTCAE v4.0. The secondary outcome measures are the number and percentage of participants who are tolerant of GemRIS indwelling on days 1-7 and 21-28. Plasma and urine levels of dFdC and dFdU are also measured. […] Cmax, plasma dFdU Analysis of Cmax (maximum concentration achieved over time) of diflourodeoxyuridine (dFdU) in plasma. [Time Frame: From Day 0 up to Day 28] • 6. Tmax, plasma dFdU. Analysis of Tmax (Day at which maximum concentration was achieved) of diflourodeoxyuridine (dFdU) in plasma. [Time Frame: From Day 0 up to Day 28] • 7. Cavg, plasma dFdU. Analysis of Descriptive statistics (e.g. sample size, mean and median, quartiles, minimum and maximum and box plots) of the concentration of diflourodeoxyuridine (dFdU) in plasma. [Time Frame: From Day 0 up to Day 28] • 8. Cmax, plasma dFdC. Analysis of Cmax (maximum concentration achieved over time) of gemcitabine (deoxydifluorocytidine hydrochloride dFdC) in plasma. [Time Frame: From Day 0 up to Day 28] • 9. Tmax, plasma dFdC. Analysis of Tmax (Day at which maximum concentration was achieved) of gemcitabine (deoxydifluorocytidine hydrochloride—dFdC) in plasma [Time Frame: From Day 0 up to Day 28] • 10. Cavg, plasma dFdC. Analysis of Descriptive statistics (e.g. sample size, mean and median, quartiles, minimum and maximum and box plots) of the concentration of gemcitabine (deoxydifluorocytidine hydrochloride—dFdC) in plasma [Time Frame: From Day 0 up to Day 28]. • 11. Cmax, urine dFdU (Arm 1 only). Analysis of Cmax (maximum concentration achieved over time) of diflourodeoxyuridine (dFdU) in urine. [Time Frame: From Day 0 up to Day 28] • 12. Tmax, urine dFdU (Arm 1 only). Analysis of Cmax (maximum concentration achieved over time) of diflourodeoxyuridine (dFdU) in urine. [Time Frame: From Day 0 up to Day 28] • 13. Tmax, urine dFdU (Arm 1 only). Analysis of Cmax (maximum concentration achieved over time) of diflourodeoxyuridine (dFdU) in urine. [Time Frame: From Day 0 up to Day 28] • 14. Cavg, urine dFdU (Arm 1 only). Analysis of Descriptive statistics (e.g. sample size, mean and median, quartiles, minimum and maximum and box plots) of the concentration of diflourodeoxyuridine (dFdU) in urine. [Time Frame: From Day 0 up to Day 28] • 15. Cmax, urine dFdC (Arm 1 only).

[3] = Pilot pharmacokinetic study, 14C-gemcitabine perfused via intra-urinary bladder cannula; assay type: in vivo, male Sprague-Dawley rats; details: 3.85 mg/mL, 300 μL/hr
Description: A pilot study performed was using male Sprague-Dawley rats to determine the pharmacokinetics and pharmacodynamics properties of administering gemcitabine locally and continuously to the bladder. Rats were fitted with intra-urinary bladder cannula (IUBC) and radiolabeled ^14C-gemcitabine was perfused for 6 or 24 hours at a rate of 300 μL/hr at a concentration of 3.85 mg/mL of gemcitabine. The concentration of gemcitabine in various tissue layers were measured.

[4] = Minipig model, local continuous gemcitabine from an intravesical device for one week; assay type: in vivo, minipigs; details: device removed at day 7; tissue levels estimated from gemcitabine and active metabolite in urine (FIG. 2)
Description: A minipig model was developed to investigate the effect of administering gemcitabine to the bladder locally and continuously using an intravesicular (intravesical) device. For this study, gemcitabine was continuously administered to minipigs for one week using an intravesicular (intravesical) device. The intravesicular (intravesical) device was removed at day 7. The concentration of gemcitabine and active metabolite was measured in the urine of the minipigs following removal of the device. Based upon the level of gemcitabine and active metabolite in the urine, the therapeutic gemcitabine levels in the bladder tissue were estimated.

[5] = test system: NBT-II rat bladder tumor cells; assay: Syngeneic rat bladder tumor model, immune effects of continuous local gemcitabine; assay type: in vivo, Wistar rats
Description: A syngeneic rat model was developed to assess treatment efficacy and immune effects of continuous local administration to the bladder. Wistar rats were cannulated on day 0 and injected with NBT-II rat bladder tumor cells on day 3. Tumors were allowed to grow for 5 days prior to the start of perfusion on day 8. On days 8-13 of the study gemcitabine was perfused at a concentration of 90 μg/ml or 180 μg/ml. The rats were euthanized on day 14. Samples from the tumor, spleen, blood and plasma were collected for histopathology and immunohistochemistry, flow cytometry, and cytokine profiling.
The level of activated CD8+ and CD4+ T cells were also measured in the tumor microenvironment compared to the level of CD+4 and CD8+ regulatory cells.
Plasma TGFβ and IL-10 levels were also measured following delivery of gemcitabine. […] Inhibition of TGFβ is known to impair Treg activation.

[6] = test system: T24 human bladder cancer cells; assay: Orthotopic bladder cancer model in rats, continuous gemcitabine perfusion of the bladder; assay type: in vivo, Athymic nude rats
From the text: After day 11, the bladders were removed and subject to histological analysis.

[7] = rat, in vivo
Description: An orthotopic bladder cancer model was developed in rats to allow evaluation of the efficacy of continuous administration of gemcitabine to the bladder on treatment of a human bladder cancer cell line. Athymic nude rats were cannulated on day 0. The rats were injected with fluorescently labeled T24 human bladder cancer cells on day 3. On day 5 of the study, tumors were observable. Gemcitabine perfusion started on day 6 and continued until day 11. Three concentrations of gemcitabine were tested: 90 μg/ml, 180 μg/ml, and 350 μg/ml.

Row | Compound | urine concentrations [1] | plasma concentrations of dFdU (quantifiable samples) [2] [ng/mL] | plasma samples with low but quantifiable dFdU [2] | urine levels [2] | distribution of radiolabel among bladder tissue layers ([3]; perfused for 6 or 24 hours) | penetration into bladder tissue layers ([3]; perfused for 6 or 24 hours (FIG. 3)) | therapeutically relevant gemcitabine levels in bladder tissue after device removal [4] | plasma TGFβ level compared to control animals ([5]; 180 μg/mL gemcitabine (FIG. 6)) | plasma IL-10 level ([5]; 180 μg/mL gemcitabine, versus untreated control rats (FIG. 7)) | level of activated CD4+ and CD8+ cells in the spleen ([5]; gemcitabine perfusion days 8-13, versus untreated control rats (FIG. 5)) | ratio of regulatory T cells to activated CD4+ and CD8+ T cells in the tumor microenvironment ([5]; perfusion 90 or 180 μg/mL, days 8-13 (FIG. 4)) | tumor volume compared to untreated control (tumor size as net average intensity, FIG. 1) ([6]; 90 μg/ml gemcitabine, continuous perfusion day 6 to day 11, five day study period) | anti-tumor effect with increasing concentration ([6]; 90 μg/ml, 180 μg/ml and 350 μg/ml gemcitabine perfusion) | levels of gemcitabine excreted in the urine ([1]; minipig study versus human phase IB trial (FIG. 9)) | plasma concentrations of gemcitabine ([2]; human) [ng/mL] | hematuria [7] | urine and blood parameters [7]
1 | O=c1ccn(C2OC(CO)C(O)C2(F)F)c(=O)[nH]1 (stereo not shown) [dFdU, diflourodeoxyuridine] | comparable | 104 to 284 | 10 of 55 | measurable | – | – | – | – | – | – | – | – | – | – | – | – | –
2 | Nc1ccn([C@@H]2O[C@H](CO)[C@@H](O)C2(F)F)c(=O)n1 [gemcitabine, 2′,2′-difluorodeoxycytidine] | comparable | – | – | measurable | most concentrated in the adventitia and epithelium, followed by muscle and lamina propria | able to penetrate into deeper bladder tissues | persisted well after the device was removed | decreased | increased | increased | decreased | significant reduction in tumor volume | increased with administration of increasing concentrations | comparable | < 100 | observed in all perfusion animals | No major significant differences
